In ChEMBL document CHEMBL4765389, “Antimicrobial and anti-inflammatory activities of short dodecapeptides derived from duck cathelicidin: Plausible mechanism of bactericidal action and endotoxin neutralization” (Eur J Med Chem, 2020):
Activity calls are given as the source filed them. No cut-off for these calls is given here.

How the values were obtained:
[1] = Cytotoxicity against mouse NIH/3T3 cells assessed as reduction in cell viability at 10 uM incubated for 24 hrs by MTT assay; assay type: cell-based, NIH3T3; settings: read-out: INH
[2] = tested on: Staphylococcus epidermidis; test: Antibacterial activity against Staphylococcus epidermidis KCTC 1917 assessed as reduction in bacterial growth incubated for 24 hrs by CLSI based broth dilution method; assay type: functional; settings: read-out: MIC100
Bacteria [3] = test: Antibacterial activity against Gram negative bacteria assessed as reduction in bacterial growth incubated for 24 hrs by CLSI based broth dilution method; assay type: functional; settings: read-out: MIC100
Bacillus subtilis = test: Antibacterial activity against Bacillus subtilis KCTC 3068 assessed as reduction in bacterial growth incubated for 24 hrs by CLSI based broth dilution method; assay type: functional; settings: read-out: MIC100
[4] = Therapeutic index, ratio of HC10 for sheep RBC to geometric mean MIC for gram positive bacteria; assay type: toxicity; settings: sheep red blood cells, read-out: TI
Saccharomyces cerevisiae = test: Antifungal activity against yeast assessed as reduction in fungal growth incubated for 24 hrs by CLSI based broth dilution method; assay type: functional; settings: read-out: MIC100
[5] = Antibacterial activity against multidrug-resistant Pseudomonas aeruginosa CCARM 2095 assessed as reduction in bacterial growth incubated for 24 hrs by CLSI based broth dilution method; assay type: functional; settings: read-out: MIC100
Pseudomonas aeruginosa = test: Antibacterial activity against Pseudomonas aeruginosa KCTC 1637 assessed as reduction in bacterial growth incubated for 24 hrs by CLSI based broth dilution method; assay type: functional; settings: read-out: MIC100
Bacteria [6] = test: Antibacterial activity against Gram positive bacteria assessed as reduction in bacterial growth incubated for 24 hrs by CLSI based broth dilution method; assay type: functional; settings: read-out: MIC100
Escherichia coli = test: Antibacterial activity against Escherichia coli KCTC 1682 assessed as reduction in bacterial growth incubated for 24 hrs by CLSI based broth dilution method; assay type: functional; settings: read-out: MIC100
Staphylococcus aureus [7] = test: Antibacterial activity against methicillin-resistant Staphylococcus aureus CCARM 3095 assessed as reduction in bacterial growth incubated for 24 hrs by CLSI based broth dilution method; assay type: functional; settings: read-out: MIC100
Candida albicans [8] = test: Antifungal activity against Candida albicans KCTC 7965 assessed as reduction in fungal growth incubated for 24 hrs by CLSI based broth dilution method; assay type: functional; settings: read-out: MIC100
Enterococcus faecium = test: Antibacterial activity against vancomycin-resistant Enterococcus faecium ATCC 51559 assessed as reduction in bacterial growth incubated for 24 hrs by CLSI based broth dilution method; assay type: functional; settings: read-out: MIC100
Candida albicans [9] = test: Antifungal activity against Candida albicans KCTC 7121 assessed as reduction in fungal growth incubated for 24 hrs by CLSI based broth dilution method; assay type: functional; settings: read-out: MIC100
[10] = Cytotoxicity against mouse NIH/3T3 cells assessed as reduction in cell viability at 20 uM incubated for 24 hrs by MTT assay; assay type: cell-based, NIH3T3; settings: NIH/3T3 cells, read-out: INH
[11] = Cytotoxicity against mouse RAW264.7 cells assessed as reduction in cell viability at 10 uM incubated for 24 hrs by MTT assay; assay type: cell-based; settings: read-out: INH
Staphylococcus aureus [12] = test: Antibacterial activity against methicillin-resistant Staphylococcus aureus CCARM 3089 assessed as reduction in bacterial growth incubated for 24 hrs by CLSI based broth dilution method; assay type: functional; settings: read-out: MIC100
Salmonella typhimurium = test: Antibacterial activity against Salmonella typhimurium KCTC 1926 assessed as reduction in bacterial growth incubated for 24 hrs by CLSI based broth dilution method; assay type: functional, Salmonella enterica subsp. enterica serovar Typhimurium; settings: Salmonella enterica, read-out: MIC100
[13] = Hemolytic activity in sheep RBC assessed as reduction in hemoglobin at 64 uM incubated for 1 hr; assay type: ADME, cell-based, Ovis aries, Erythrocyte; settings: sheep red blood cells (erythrocytes), read-out: Activity
[14] = Therapeutic index, ratio of HC10 for sheep RBC to geometric mean MIC for gram negative bacteria; assay type: toxicity; settings: sheep red blood cells, read-out: TI
[15] = Cytotoxicity against mouse RAW264.7 cells assessed as reduction in cell viability at 20 uM incubated for 24 hrs by MTT assay; assay type: cell-based; settings: read-out: INH
Erythrocyte [16] = test: Hemolytic activity in sheep RBC assessed as reduction in hemoglobin incubated for 1 hr; assay type: ADME, cell-based, Ovis aries
[17] = Retention time of the compound by RP-HPLC method; assay type: physicochemical
Staphylococcus aureus [18] = test: Antibacterial activity against Staphylococcus aureus KCTC 1621 assessed as reduction in bacterial growth incubated for 24 hrs by CLSI based broth dilution method; assay type: functional; settings: read-out: MIC100
Erythrocyte [19] = test: Hemolytic activity in sheep RBC assessed as reduction in hemoglobin at 256 uM incubated for 1 hr; assay type: ADME, cell-based, Ovis aries
Staphylococcus aureus [20] = test: Antibacterial activity against methicillin-resistant Staphylococcus aureus CCARM 3090 assessed as reduction in bacterial growth incubated for 24 hrs by CLSI based broth dilution method; assay type: functional; settings: read-out: MIC100
[21] = Therapeutic index, ratio of HC10 for sheep RBC to geometric mean MIC for yeast; assay type: toxicity; settings: sheep red blood cells, read-out: TI
[22] = Antibacterial activity against multidrug-resistant Pseudomonas aeruginosa CCARM 2109 assessed as reduction in bacterial growth incubated for 24 hrs by CLSI based broth dilution method; assay type: functional; settings: read-out: MIC100
RAW264.7 [23] = test: Antiinflammatory activity against mouse RAW264.7 cells assessed as reduction in LPS-induced TNFalpha level at 10 uM incubated for 24 hrs by […] relative to control; assay type: functional
RAW264.7 [24] = test: Antiinflammatory activity against mouse RAW264.7 cells assessed as reduction in LPS-induced nitrite level at 5 uM incubated for 24 hrs by Griess reagent based assay relative to control; assay type: functional
Lipopolysaccharide (LPS) = test: Inhibition of Escherichia coli O111:B4 LPS aggregation assessed as increase in FITC-LPS dissociation at 2 uM by spectrofluorometry
RAW264.7 [25] = test: Antiinflammatory activity in mouse RAW264.7 cells assessed as neutralization of LPS binding by measuring LPS-FITC aggregation at 10 uM pretreated with LPS for 1 hr followed by compound addition and measured after 1 hr by flowcytometry analysis (reference value: 48.12 %); assay type: functional
RAW264.7 [26] = test: Antiinflammatory activity in mouse RAW264.7 cells assessed as suppression of LPS binding by measuring LPS-FITC aggregation at 10 uM pretreated with LPS for 1 hr followed by compound addition and measured after 30 mins by flowcytometry analysis (reference value: 67.93 %); assay type: functional; settings: 0.5 h

Row | Substance | MIC [2] [µM] | MIC (Bacteria [3]) [µM] | MIC (Bacillus subtilis) [µM] | selectivity ratio [4] | MIC (Saccharomyces cerevisiae) [µM] | MIC [5] [µM] | MIC (Pseudomonas aeruginosa) [µM] | MIC (Bacteria [6]) [µM] | MIC (Escherichia coli) [µM] | MIC (Staphylococcus aureus [7]) [µM] | MIC (Candida albicans [8]) [µM] | MIC (Enterococcus faecium) [µM] | MIC (Candida albicans [9]) [µM] | cytotoxicity at 24 h, 20 µM [10] [%] | MIC (Staphylococcus aureus [12]) [µM] | MIC (Salmonella typhimurium) [µM] | selectivity ratio [14] | cytotoxicity at 24 h, 20 µM [15] [%] | HC10 (Erythrocyte [16]) [µM] | Retention_time [17] [min] | further results
1 | H-FWQLVPLAIKIYRAWKRR-NH2 | 16 | 20.8 | 8 | 0.1 | 16 | 32 | 16 | 20.5 | 16 | 32 | 16 | 32 | 16 | < 10 | 32 | 8 | 0.1 | < 10 | 1.3 | 29 | cytotoxicity at 24 h, 10 µM [1]: 40%; cytotoxicity at 24 h, 10 µM [11]: 40%; hemolysis at 1 h, 64 µM [13]: 100%; MIC (Staphylococcus aureus [18]): 8 µM; Activity (Erythrocyte [19]): Non-Toxic; MIC (Staphylococcus aureus [20]): 16 µM; selectivity ratio [21]: 0.1; MIC [22]: 32 µM
2 | H-KRFWQLVPLAIKIYRAWKRR-OH | 8 | 12 | 8 | 0.4 | 12 | 16 | 16 | 11.4 | 8 | 8 | 8 | 16 | 16 | < 10 | 16 | 4 | 0.4 | < 10 | 5.1 | 26.8 | cytotoxicity at 24 h, 10 µM [1]: 40%; cytotoxicity at 24 h, 10 µM [11]: 40%; hemolysis at 1 h, 64 µM [13]: 40%; MIC (Staphylococcus aureus [18]): 8 µM; Activity (Erythrocyte [19]): Non-Toxic; MIC (Staphylococcus aureus [20]): 16 µM; selectivity ratio [21]: 0.4; MIC [22]: 16 µM
3 | H-LAIKIYRAWKRR-NH2 | 4 | 15.2 | 8 | 243 | 12 | 32 | 4 | 21.1 | 16 | 32 | 8 | 32 | 16 | < 10 | 32 | 8 | 33.7 | < 10 | > 256 | 16.4 | inhibition at 10 µM (RAW264.7 [23]): < 10%; inhibition at 5 µM (RAW264.7 [24]): < 10%; inhibition (Lipopolysaccharide (LPS)): Active; Activity (RAW264.7 [25]): 42.35%; Activity (RAW264.7 [26]): 59.24%; MIC (Staphylococcus aureus [18]): 8 µM; Activity (Erythrocyte [19]): Non-Toxic; MIC (Staphylococcus aureus [20]): 32 µM; selectivity ratio [21]: 42.7; MIC [22]: 16 µM
